Source: patent US9682069B2, “Methods of treating Dravet syndrome” (Ovid Therapeutics Inc., priority 2015, dated 2017)
Entries after “also recorded” stand apart in the source; their conditions may differ.

Experiments:
[1] = in vivo, po
[2] = Study of driving performance after gaboxadol administration (Example 3); assay type: in vivo, human (healthy male and female subjects); conditions: for effect on memory test, body sway, DSST or critical tracking: cognitive and psychomotor test battery before the driving test
From the text: The study participants included healthy, male and female subjects between 21 and 45 years of age, with a valid drivers license for at least 3 years.
Following a cognitive and psychomotor test battery, the driving test started at 9 am and lasted for one hour.

[3] = three-month efficacy study, insomnia; cited from earlier work
[4] = Study of daytime performance after sleep restriction (Example 4); assay type: in vivo, human (healthy adults)
Protocol: The study included a 2-night single-blind placebo run-in period, a 4-night double-blind treatment period during which sleep was restricted to 5 hours and a 2-night single-blind placebo run-out period. The study included healthy male and female volunteers 18 to <55 years of age.
2-night run-in period: All patients received placebo
2-night run-out period: All patients received placebo
The primary endpoints included observations based on the Multiple Sleep Latency Test (MSLT) and Slow Wave Sleep (SWS) assessment.

[5] = 111 individuals with depression; cited from earlier work

SMILES: CCN(CC)CCN1C(=O)CN=C(c2ccccc2F)c2cc(Cl)ccc21 [Flurazepam]
- residual effect on primary endpoints Choice Reaction Time and Critical Flicker Fusion [1]: showed significant effect

SMILES: Oc1noc2c1CCNC2 [gaboxadol, 4,5,6,7-tetrahydroisoxazolo [5,4-c]pyridine-3-ol]
- residual effect on primary endpoints Choice Reaction Time and Critical Flicker Fusion [1]: did not show residual effect
- residual effects on other measurements (MSLT, DSST, Tracking, Memory tests, Body Sway, Leeds Sleep Evaluation Questionnaire) [1]: did not show any signs of residual effects
- tolerability ([2]; both the evening and the middle-of-the-night dose, 15 mg): well tolerated
- effect on memory test, body sway, DSST or critical tracking [2]: no effect
- effects in sleep onset and sleep maintenance [3]: failed to show significant effects
- daytime performance, effect sizes for the neurocognitive battery ([4]; gaboxadol 15 mg versus placebo): no strong evidence that gaboxadol improves daytime performance
- subjective daytime sleepiness versus placebo ([4]; gaboxadol 15 mg, Sleep Restriction period): trend towards less subjective daytime sleepiness
- amount of slow wave sleep (SWS) versus placebo ([4]; gaboxadol 15 mg, Sleep Restriction period, p<0.001, 1 sided): significantly more SWS; also recorded: increases the amount of slow wave sleep
- daytime sleepiness (MSLT) versus placebo ([4]; gaboxadol 15 mg, Sleep Restriction period, p=0.047, 1 sided): significantly less daytime sleepiness; also recorded: protective effect on reducing daytime sleepiness
- MSLT, average difference versus placebo (longer) ([4]; gaboxadol 15 mg, last two Sleep Restriction days): 2.01 min
- Karolinska Sleepiness Score (KSS), average difference versus placebo (less) ([4]; gaboxadol 15 mg, last two Sleep Restriction days, LDA model, p=0.058, 1 sided): 0.68
- SWS, average difference versus placebo (longer) ([4]; gaboxadol 15 mg, last two Sleep Restriction nights): 20.53 min

SMILES: OC(c1ccccc1)(c1ccccc1)C1CCCCN1 (centres unmarked) [pipradrol]
- efficacy versus placebo in depression [5]: not superior to placebo

SMILES: Cc1ccc(-c2nc3ccc(C)cn3c2CC(=O)N(C)C)cc1 [zolpidem]
- effect on driving performance, middle-of-the-night administration ([2]; dose at 4 am (gaboxadol 15 mg; zolpidem 10 mg), on-the-road driving test at 9 am): numerically greater effect

SMILES: CN1CCN(C(=O)OC2c3nccnc3C(=O)N2c2ccc(Cl)cn2)CC1 (centres unmarked) [zopiclone]
- effect on memory test, body sway, DSST or critical tracking [2]: had effect on several of these tests
- effect on driving performance, evening dose ([2]; evening dose before bed (gaboxadol 15 mg; zopiclone 7.5 mg), on-the-road driving test at 9 am): numerically greater effect
